The record followed here is US20230002344A1, “NOVEL BENZOTHIOPHENE DERIVATIVES AND USE THEREOF FOR STIMULATING MITOCHONDRIAL TURNOVER” (NIBN, The National Institute For Biotechnology In The Negev …, priority 2019, published 2023).

SMILES strings stand for the structures. “Also recorded” adds a separate entry of the source.

Common to all, as to type: cell-based
For data set [1], the system named is INS1 cells. In words: Mitochondrial mass by Mitotracker green staining. The settings on record: 18 h; SPB08007 25 μM, MWP00839 11.5 μM, Urolithin A 25 μM. The method, then: The Z-score depicts the standard deviation from the neutral control (DMSO). In FIG. 3C: Mitochondrial mass in INS1 cells treated for 18 hours with either DMSO (control), Urolithin A (25 μM), SPB08007 (“SBP”) (25 μM) or MWP00839 (“MWP”) (11.5 μM) and then stained with Mitotracker green (200 nM). In FIG. 3D: SPB08007 and MWP00839 increase the number of mitochondria inside autolysosomes. INS1 cells expressing mCherry-GFP were exposed to SPB08007, MWP00839, and DMSO for 8 hours and then subjected to confocal microscopy. The area of red fluorescence in the taken images was determined. N=3+/−SEM pANOVA<0.05. FIG. 3E provides representative images. […] FIG. 3F provides the Western blot against LC3 in INS1 cells treated with the compounds in presence or absence of bafilomycin (+b) for the last 2 hours.
Mitotracker Green Fluorescence, Anion Radical Superoxide and Mitochondrial Membrane Potential. INS1 cells were seeded into wells of a 96-wells glass bottom cell culture plate (CELLSTAR) at a density of 2*10^4 cells/well. To assess mitochondrial clearance, a pulse-chase experiment was performed. […] Results are expressed as the percentage of MTG fluorescence relative to MTG fluorescence of the “time 0” control. […] Integrated fluorescence of each field was analyzed in Image J after background subtraction and threshold (IsoData) application. Twenty-four fields of each condition were analyzed in each experiment.

In data set [2] the test system is INS1 cells expressing mCherry-GFP. In words: mCherry-GFP-Fis1101-152 determination of mitophagy. From the text:
To corroborate the increase in mitochondrial clearance, we determined mitophagy by testing the compounds in INS1 cells expressing mCherry-GFP, a mitochondrial probe that emits green and red fluorescence under physiologic pH but red fluorescence only under acidic pH (such as that occurring in autolysosomes) and is therefore used for quantifying mitophagy. Unlike MitoTimer, which captures the accumulating effect of mitochondrial turnover, mCherry-GFP captures mitophagy at the time that it occurs. Since the timing of the induction of mitophagy by the hits was not known, we did a time-lapse. The cells were treated with the hits for 2, 8 and 18 hours. While after 2 hours and 18 hours, the molecules tended to increase the number of mitochondria inside autophagosomes (data not shown), only after 8 hours was this increase significant.
mCherry-GFP-Fis1101-152 determination of mitophagy. INS1 cells were seeded into 4 compartment […]™ glass bottom cell culture dishes at a density of 2*10^4 cells/compartment. After 48 hours cells were transduced with an adenoviral construct encoding the fluorescent mitophagy reporter mCherry-GFP-Fis1101-152 for 24 hours. A media change containing the indicated treatment concentration or 0.1% DMSO as vehicle control was performed 8 hours before the imaging session. Imaging was performed using a 63× Plan Neofluar objective and the Airyscan module of a Zeiss LSM880 confocal microscope. 25 visual fields containing 59-85 cells in total were imaged per condition. The experiment was repeated three times independently. Image analysis was performed with FIJI ImageJ 1.51p and CellProfiler 2.2.0 rev ac0529e. Briefly, individual cells were cropped and background was subtracted using a median filter assisted processing method (Dunn, K. W., Kamocka, M. M. McDonald, J. H. (2011) A practical guide to evaluating colocalization in biological microscopy. Am. J. Physiol. Cell Physiol. 300, C723-C742). Ratios of red/green fluorescence channels were computed and mitophagy positive structures were recognized based on a lower ratio cut-off of 2.5 of red over green. Mitophagy events per cell were determined by the following formula. […]
Data were normalized to DMSO controls to account for day to day variation. […] Significant treatment differences were determined using One-way ANOVA and Tukey post-hoc analysis. […]
The impact of the hits on mitochondrial turnover was further confirmed by a mitophagy-specific assay, a protein with a tandem mCherry-GFP tag attached to the localization signal of the protein FIS at the OMM. […] When mitochondria enter the lysosomes, the GFP fluorescence is quenched, the remaining red fluorescence is seen as red puncta, representing the undergoing mitophagy events.

Data set [3] relates to INS1 cells. In words: Cell viability (XTT). The settings on record: 25 μM, 24 hours exposure. The method, then: Cell Viability. Viability was measured using an XTT kit (Biological Industries), as recommended by the manufacturer. 30,000 cells were seeded in a flat 96-well plate. To each well 100 μl of growth media was added. The cells were incubated in a CO2 incubator at 37° C. In most cases, cells can be used to assay proliferation after 24-96 hours. Each test included a blank containing complete medium without cells as a background control. To prepare a reaction solution sufficient for one plate (96 wells), 0.1 ml activation solution was added to 5 ml XTT reagent. 50 μl of the reaction solution was added to each well and the plate was incubated in an incubator for 2-24 hours. Following the incubation, the plate was shacked gently to evenly distribute the dye in the wells and the absorbance of the samples was measured against a background control with a spectrophotometer (ELISA reader) at a wavelength of 480 nm. To determine non-specific readings we used a wavelength of 650 nm which we subtracted from the 480 nm measurement. The average absorbance of the blank control wells was finally subtracted from that of the other wells.
For all the experiment concerning cell viability, a kit of XTT reagent was used (Biological Industries).
(Formazan colour is commonly taken as a measure of viable cells.)

As to `CC(=O)N/C(=C\c1sc2ccccc2c1C)C(=O)O` [SPB08007], the “mitochondrial mass (mitotracker green fluorescence)” value in data set [1] is recorded as “reduction in fluorescence”. In data set [2] (25 uM), the “time of peak formation of acidic puncta” value was determined as 8 h. For the same compound, in data set [2] (25 uM, 8 h, vs DMSO), the “number of acidic puncta (mitophagy events per cell)” value is given as “significantly increased”. Besides, in data set [2] (25 uM, 18 h), the “number of mitophagy events at 18 h” value is “returned to control levels”. Moreover, the “number of red fluorescent dots in acidic vesicles (mitophagy)” value in data set [2] (8 hours) is reported as “increased”. In addition, the “viability (XTT)” value in data set [3] is given as “did not affect viability; also recorded: comparable to DMSO control”.
